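Each compound was tested at five concentrations against cells in 96-well plates for 48 hours. GI50 is the concentration that inhibits growth by half.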 Active and inactive are the calls of the source. No stated cut-off is given here; in the data, active = GI50 up to about 1.1 µM and inactive = higher.
How the values were obtained:
Assay in all cases: inhibition of tumour cell growth, NCI panel, 48 h
DLD-1 = system: DLD-1
DMS-114 = system: DMS-114
DMS-273 = system: DMS-273
HOP-18 = system: HOP-18
KM-20L2 = system: KM-20L2
LXFL 529 = system: LXFL 529
RXF 631 = system: RXF 631
SNB-78 = system: SNB-78
XF498 = system: XF498

Measured: GI50

O=C(C(=O)n1ncc(Cl)c(Cl)c1=O)n1ncc(Cl)c(Cl)c1=O
inactive: DLD-1 16 µM | DMS-114 27.4 µM | DMS-273 17.9 µM | HOP-18 31.8 µM | KM-20L2 29.6 µM | LXFL 529 14.6 µM | RXF 631 38 µM | SNB-78 28.6 µM | XF498 26.2 µM

Reference: ChEMBL document CHEMBL1201862, “PubChem BioAssay data set” (2004)
